From ChEMBL document CHEMBL1138991, “(+)-12alpha-Hydroxysophocarpine, a new quinolizidine alkaloid and related anti-HBV alkaloids from Sophora flavescens” (2006)
Active and inactive are the calls of the source. The rule behind the calls is not given here.

Columns and labels:
HepG2 [1] = assay: Cytotoxicity against HepG2 2.2.15 cell line at 0.4 umol/mL by MTT assay; type: functional, Homo sapiens
Hepatitis B virus [2] = assay: Inhibition of HBeAg release against HBV in HepG2 2.2.15 cell line at 0.2 umol/mL; type: functional; set-up: scale not given: the % may be the effect or the level left
Hepatitis B virus [3] = assay: Inhibition of HBeAg release against HBV in HepG2 2.2.15 cell line at 0.1 umol/mL; type: functional; set-up: scale not given: the % may be the effect or the level left
Hepatitis B virus [4] = assay: Inhibition of HBsAg release against HBV in HepG2 2.2.15 cell line at 0.2 umol/mL; type: functional; set-up: scale not given: the % may be the effect or the level left
Hepatitis B virus [5] = assay: Inhibition of HBsAg release against HBV in HepG2 2.2.15 cell line at 0.1 umol/mL; type: functional; set-up: scale not given: the % may be the effect or the level left
Hepatitis B virus [6] = assay: Inhibition of HBeAg release against HBV in HepG2 2.2.15 cell line at 0.4 umol/mL; type: functional; set-up: scale not given: the % may be the effect or the level left
Hepatitis B virus [7] = assay: Inhibition of HBsAg release against HBV in HepG2 2.2.15 cell line at 0.4 umol/mL; type: functional; set-up: scale not given: the % may be the effect or the level left
HepG2 [8] = assay: Cytotoxicity against HepG2 2.2.15 cell line at 0.8 umol/mL by MTT assay; type: functional, cell-based; details: Homo sapiens
Hepatitis B virus [9] = assay: Inhibition of HBsAg release against HBV in HepG2 2.2.15 cell line at 0.8 umol/mL; type: functional; set-up: scale not given: the % may be the effect or the level left
HepG2 [10] = assay: Cytotoxicity against HepG2 2.2.15 cell line at 1.6 umol/mL by MTT assay; type: functional, cell-based; details: Homo sapiens
Hepatitis B virus [11] = assay: Inhibition of HBeAg release against HBV in HepG2 2.2.15 cell line at 0.8 umol/mL; type: functional; set-up: scale not given: the % may be the effect or the level left

Q: How did the Activity (HepG2 [1]) turn out when O=C1CCC[C@@H]2[C@H]3C[C@H](O)CN4CCC[C@@H](CN12)[C@@H]34 was run?
A: Its Activity is “>=25%”.

Q: What about the Activity (Hepatitis B virus [2]) of the same molecule?
A: Its Activity is 19.5%.

Q: What about the Activity (Hepatitis B virus [3]) of the same molecule?
A: Its Activity is 13.3%.

Q: What about the Activity (Hepatitis B virus [4]) of the same molecule?
A: The Activity was 31.6%.

Q: What about the Activity (Hepatitis B virus [5]) of the same molecule?
A: The Activity was 18.1%.

Q: With O=C1CC=C[C@@H]2[C@H]3CCCN4CCC[C@@H](CN12)[C@@H]34 as the molecule, how does the Activity (HepG2 [1]) read?
A: Its Activity is “>=25%”.

Q: What about the Activity (Hepatitis B virus [2]) of the same molecule?
A: Its Activity is 25.4%.

Q: And the Activity (Hepatitis B virus [3])?
A: Its Activity is 22.6%.

Q: And the Activity (Hepatitis B virus [4])?
A: Its Activity is 52.6%.

Q: What about the Activity (Hepatitis B virus [5]) of the same molecule?
A: Its Activity is 25.1%.

Q: Which results are given for O=C1CCC[C@@H]2[C@H]3CCC[N+]4([O-])CCC[C@@H](CN12)[C@@H]34 (some centres undefined) [OXYMATRINE]?
A: Activity (HepG2 [1]): >=25%; Activity (Hepatitis B virus [2]): 17.1%; Activity (Hepatitis B virus [3]): 15.8%; Activity (Hepatitis B virus [4]): 39.7%; Activity (Hepatitis B virus [5]): 35.3%

Q: With O=C1CCC[C@@H]2[C@H]3CCCN4CCC[C@@H](CN12)[C@H]34 as the molecule, how does the Activity (HepG2 [1]) read?
A: The Activity was “>=25%”.

Q: And the Activity (Hepatitis B virus [2])?
A: The Activity was 10.8%.

Q: And the Activity (Hepatitis B virus [3])?
A: The Activity was 9.6%.

Q: And the Activity (Hepatitis B virus [4])?
A: The Activity was 27.7%.

Q: What about the Activity (Hepatitis B virus [5]) of the same molecule?
A: Its Activity is 25.1%.

Q: Which results are given for O=C1CCC[C@@H]2[C@H]3CCCN4CCC[C@@H](CN12)[C@@H]34 [MATRINE]?
A: Activity (HepG2 [1]): >=25%; Activity (Hepatitis B virus [2]): 2.7%; Activity (Hepatitis B virus [3]): 0%; Activity (Hepatitis B virus [4]): 30.9%; Activity (Hepatitis B virus [5]): 8.9%

Q: How did the Activity (HepG2 [1]) turn out when O=C1C=CC[C@@H]2[C@H]3CCCN4CCC[C@@H](CN12)[C@@H]34 [SOPHOCARPINE] was run?
A: Its Activity is “>=25%”.

Q: And the Activity (Hepatitis B virus [2])?
A: The Activity was 34.6%.

Q: And the Activity (Hepatitis B virus [3])?
A: The Activity was 31.4%.

Q: And the Activity (Hepatitis B virus [4])?
A: Its Activity is 57.2%.

Q: And the Activity (Hepatitis B virus [5])?
A: Its Activity is 21.6%.

Q: O=C1C=CC[C@@H]2[C@H]3C[C@H](O)CN4CCC[C@@H](CN12)[C@@H]34 was tested. Which Activity (HepG2 [1]) did it give?
A: The Activity was “>=25%”.

Q: What about the Activity (Hepatitis B virus [2]) of the same molecule?
A: Its Activity is 5.7%.

Q: And the Activity (Hepatitis B virus [3])?
A: Its Activity is 0%.

Q: And the Activity (Hepatitis B virus [4])?
A: Its Activity is 24.5%.

Q: What about the Activity (Hepatitis B virus [5]) of the same molecule?
A: The Activity was 0%.

Q: What does the source list for O=C1C=CC[C@@H]2[C@H]3CCC[N+]4([O-])CCC[C@@H](CN12)[C@@H]34 (some centres undefined) [OXYSOPHOCARPINE]?
A: Activity (HepG2 [1]): >=25%; Activity (Hepatitis B virus [2]): 24.6%; Activity (Hepatitis B virus [3]): 22.4%; Activity (Hepatitis B virus [4]): 48.3%; Activity (Hepatitis B virus [5]): 39.9%

Q: With O=c1cccc2n1C[C@H]1C[C@H]2CN2CCCC[C@H]12 as the molecule, how does the Activity (Hepatitis B virus [6]) read?
A: The Activity was 0%.

Q: What about the Activity (Hepatitis B virus [2]) of the same molecule?
A: The Activity was 0%.

Q: And the Activity (Hepatitis B virus [7])?
A: Its Activity is 33.1%.

Q: What about the Activity (Hepatitis B virus [4]) of the same molecule?
A: The Activity was 19.8%.

Q: And the Activity (HepG2 [8])?
A: The Activity was “Active”.

Q: Which results are given for O=C1C=CC[C@@H]2[C@H]3CCCN4CCC[C@H](CN12)[C@@H]34?
A: Activity (Hepatitis B virus [9]): 79.3%; Activity (Hepatitis B virus [6]): 22.4%; Activity (Hepatitis B virus [2]): 6.8%; Activity (HepG2 [10]): Active; Activity (Hepatitis B virus [3]): 0%; Activity (Hepatitis B virus [7]): 78.2%; Activity (Hepatitis B virus [4]): 63.4%; Activity (Hepatitis B virus [11]): 27.6%; Activity (Hepatitis B virus [5]): 17.9%

Q: Which Activity (HepG2 [1]) does the source give for O=C1C=C[C@H](O)[C@@H]2[C@H]3CCCN4CCC[C@@H](CN12)[C@@H]34 here?
A: The Activity was “>=25%”.

Q: What about the Activity (Hepatitis B virus [2]) of the same molecule?
A: The Activity was 4.6%.

Q: And the Activity (Hepatitis B virus [3])?
A: The Activity was 0%.

Q: And the Activity (Hepatitis B virus [4])?
A: The Activity was 40.8%.

Q: What about the Activity (Hepatitis B virus [5]) of the same molecule?
A: Its Activity is 28%.
